Assay results as given in ChEMBL document CHEMBL2169792, “Synthesis of new 4-thiazolidinone-, pyrazoline-, and isatin-based conjugates with promising antitumor activity” (J Med Chem, 2012).

Tests used:
Format in all cases: functional
HCT-116 = assay: Cytotoxicity against human HCT116 cells after 48 hrs by SRB assay; details: HCT-116, 48 h
KM12 = assay: Cytotoxicity against human KM12 cells after 48 hrs by SRB assay; details: KM12, 48 h
A549 = assay: Cytotoxicity against human A549 cells after 48 hrs by SRB assay; details: A549, 48 h
NCI-H460 = assay: Cytotoxicity against human NCI-H460 cells after 48 hrs by SRB assay; details: NCI-H460, 48 h
EKVX = assay: Cytotoxicity against human EKVX cells after 48 hrs by SRB assay
SK-MEL-28 = assay: Cytotoxicity against human SK-MEL-28 cells after 48 hrs by SRB assay; details: SK-MEL-28, 48 h
Hs-578T = assay: Cytotoxicity against human Hs578T cells after 48 hrs by SRB assay
[1] = Cytotoxicity against human melanoma cells after 48 hrs by SRB assay; details: Melanoma cell
OVCAR-8 = assay: Cytotoxicity against human OVCAR8 cells after 48 hrs by SRB assay; details: OVCAR-8, 48 h
HOP-92 = assay: Cytotoxicity against human HOP92 cells after 48 hrs by SRB assay; details: HOP-92, 48 h
[2] = Cytotoxicity against human leukemia cells after 48 hrs by SRB assay; details: Leukemia cell
MDA-MB-435 = assay: Cytotoxicity against human MDA-MB-435 cells after 48 hrs by SRB assay; details: MDA-MB-435, 48 h
CCRF-CEM = assay: Cytotoxicity against human CCRF-CEM cells after 48 hrs by SRB assay
[3] = Cytotoxicity against human renal cancer cells after 48 hrs by SRB assay; details: Cancer cell lines
Malme-3M = assay: Cytotoxicity against human MALME-3M cells after 48 hrs by SRB assay
MCF7 = assay: Cytotoxicity against human MCF7 cells after 48 hrs by SRB assay; details: MCF7, 48 h
[4] = Cytotoxicity against human CNS cancer cells after 48 hrs by SRB assay; details: Cancer cell lines
LOX IMVI = assay: Cytotoxicity against human LOXIMVI cells after 48 hrs by SRB assay
OVCAR-3 = assay: Cytotoxicity against human OVCAR3 cells after 48 hrs by SRB assay; details: OVCAR-3, 48 h
UACC-62 = assay: Cytotoxicity against human UACC62 cells after 48 hrs by SRB assay; details: UACC-62, 48 h
NCI-H23 = assay: Cytotoxicity against human NCI-H23 cells after 48 hrs by SRB assay; details: NCI-H23, 48 h
[5] = Cytotoxicity against human non-small cell lung cancer cells after 48 hrs by SRB assay; details: Cancer cell lines
UO-31 = assay: Cytotoxicity against human UO31 cells after 48 hrs by SRB assay; details: UO-31, 48 h
SK-OV-3 = assay: Cytotoxicity against human SKOV3 cells after 48 hrs by SRB assay; details: SK-OV-3, 48 h
786-0 = assay: Cytotoxicity against human 786-0 cells after 48 hrs by SRB assay; details: 786-0, 48 h
A498 = assay: Cytotoxicity against human A498 cells after 48 hrs by SRB assay; details: A498, 48 h
DU-145 = assay: Cytotoxicity against human DU145 cells after 48 hrs by SRB assay; details: DU-145, 48 h
UACC-257 = assay: Cytotoxicity against human UACC257 cells after 48 hrs by SRB assay; details: UACC-257, 48 h
K562 = assay: Cytotoxicity against human K562 cells after 48 hrs by SRB assay; details: K562, 48 h
RXF 393 = assay: Cytotoxicity against human RXF393 cells after 48 hrs by SRB assay; details: RXF 393, 48 h
NCI/ADR-RES = assay: Cytotoxicity against human NCI/ADR-RES cells after 48 hrs by SRB assay
MDA-MB-231 = assay: Cytotoxicity against human MDA-MB-231 cells after 48 hrs by SRB assay; details: MDA-MB-231, 48 h
SK-MEL-5 = assay: Cytotoxicity against human SK-MEL-5 cells assessed as cell growth at 10 uM after 48 hrs by SRB assay; details: SK-MEL-5, 48 h, read-out: Activity
M14 = assay: Cytotoxicity against human M14 cells after 48 hrs by SRB assay; details: M14, 48 h
HCC 2998 = assay: Cytotoxicity against human HCC2998 cells after 48 hrs by SRB assay; details: HCC 2998, 48 h
[6] = read-out: LC50 (the source's name)

SMILES: COc1ccc(C2CC(c3ccc4ccccc4c3)=NN2C2=NC(=O)/C(=C3\C(=O)Nc4ccc(Br)cc43)S2)cc1 (stereo unspecified)
- GI50 (HCT-116): 18 nM
- TGI (HCT-116): 33.5 nM
- CC50 (HCT-116; [6]): > 62.4 nM
- GI50 (KM12): 23.1 nM
- TGI (KM12): 53.5 nM
- CC50 (KM12; [6]): 231 nM
- GI50 (A549): 24.7 nM
- TGI (A549): 69.5 nM
- CC50 (A549; [6]): 25700 nM
- GI50 (NCI-H460): 33.1 nM
- TGI (NCI-H460): 112 nM
- CC50 (NCI-H460; [6]): 5450 nM
- GI50 (EKVX): 47.6 nM
- TGI (EKVX): 426 nM
- CC50 (EKVX; [6]): > 100000 nM
- GI50 (SK-MEL-28): 21.8 nM
- TGI (SK-MEL-28): 51.5 nM
- CC50 (SK-MEL-28; [6]): > 205 nM
- GI50 (Hs-578T): 64.4 nM
- TGI (Hs-578T): > 1030 nM
- CC50 (Hs-578T; [6]): > 100000 nM
- GI50 [1]: 69 nM
- TGI [1]: 190 nM
- CC50 [1, 6]: 3520 nM
- GI50 (OVCAR-8): 32 nM
- TGI (OVCAR-8): 176 nM
- CC50 (OVCAR-8; [6]): 24100 nM
- GI50 (HOP-92): < 10 nM
- TGI (HOP-92): 24.2 nM
- CC50 (HOP-92; [6]): 1470 nM
- GI50 [2]: 130 nM
- TGI [2]: 3370 nM
- CC50 [2, 6]: 87800 nM
- GI50 (MDA-MB-435): 31.8 nM
- TGI (MDA-MB-435): 106 nM
- CC50 (MDA-MB-435; [6]): 2440 nM
- GI50 (CCRF-CEM): 32.9 nM
- TGI (CCRF-CEM): 483 nM
- CC50 (CCRF-CEM; [6]): > 100000 nM
- GI50 [3]: 64 nM
- LC50 [3]: 5190 nM
- TGI [3]: 330 nM
- GI50 (Malme-3M): 27.7 nM
- TGI (Malme-3M): 72.9 nM
- CC50 (Malme-3M; [6]): 640 nM
- GI50 (MCF7): 26.4 nM
- TGI (MCF7): > 74.7 nM
- CC50 (MCF7; [6]): > 586 nM
- GI50 [4]: 46 nM
- LC50 (concentration giving 50% net cell kill) [4]: 3420 nM
- TGI [4]: 210 nM
- GI50 (LOX IMVI): 24.3 nM
- TGI (LOX IMVI): 58.9 nM
- CC50 (LOX IMVI; [6]): 249 nM
- GI50 (OVCAR-3): 21.6 nM
- TGI (OVCAR-3): 45 nM
- CC50 (OVCAR-3; [6]): 93.7 nM
- GI50 (UACC-62): 54.7 nM
- TGI (UACC-62): 261 nM
- CC50 (UACC-62; [6]): 1190 nM
- GI50 (NCI-H23): 24.6 nM
- TGI (NCI-H23): 56.7 nM
- CC50 (NCI-H23; [6]): 291 nM
- GI50 [5]: 54 nM
- TGI [5]: 220 nM
- CC50 [5, 6]: 41500 nM
- GI50 (UO-31): 57.8 nM
- GI50 (SK-OV-3): 33 nM
- TGI (SK-OV-3): > 114 nM
- CC50 (SK-OV-3; [6]): > 2840 nM
- GI50 (786-0): 19.4 nM
- TGI (786-0): 38.7 nM
- CC50 (786-0; [6]): > 77.2 nM
- GI50 (A498): 25.1 nM
- TGI (A498): 78.6 nM
- CC50 (A498; [6]): 316 nM
- GI50 (DU-145): 39.3 nM
- TGI (DU-145): 752 nM
- CC50 (DU-145; [6]): 25500 nM
- GI50 (UACC-257): 51.1 nM
- TGI (UACC-257): 318 nM
- CC50 (UACC-257; [6]): > 100000 nM
- GI50 (K562): 37 nM
- TGI (K562): > 12400 nM
- CC50 (K562; [6]): > 100000 nM
- GI50 (RXF 393): 19.7 nM
- TGI (RXF 393): 40.3 nM
- CC50 (RXF 393; [6]): 82.2 nM
- GI50 (NCI/ADR-RES): 675 nM
- TGI (NCI/ADR-RES): > 100000 nM
- CC50 (NCI/ADR-RES; [6]): > 100000 nM
- GI50 (MDA-MB-231): 14.5 nM
- TGI (MDA-MB-231): 62.7 nM
- CC50 (MDA-MB-231; [6]): 349 nM
- growth at 10 µM (SK-MEL-5): -59.8%
- GI50 (M14): 24.5 nM
- TGI (M14): 59.3 nM
- CC50 (M14; [6]): > 210 nM
- GI50 (HCC 2998): 25.2 nM
- TGI (HCC 2998): 65.8 nM
- CC50 (HCC 2998; [6]): 272 nM
